pIC50: −log10 of the molar value.
Tests used:
MAT2A enzyme = molecular target: T1, MAT2A enzyme (Homo sapiens, UniProt P31153); test: MAT2A enzymatic assay (Biomol Green, OD620); format: biochemical
T1 construct: purchased BPS 71401
Description: • a) First, a 5× MAT2A assay buffer (250 mM Tris-HCl, pH 8.0; 250 mM KCl; 75 mM MgCl2; 0.025% BSA; 0.05% Brij35; 1.5 mM EDTA) was prepared and partially diluted to 1× for later use. • b) Preparation and addition of MAT2A enzyme (BPS, 71401): The MAT2A enzyme was diluted to 3.674 ng/µL (1.67×, final concentration: 2.20 ng/µL) with the 1× MAT2A assay buffer. Using a BioTek (MultiFlo FX) automated dispenser, the 1.67× MAT2A enzyme solution was added to the compound test wells and negative control wells of a plate at 15 µL/well, and meanwhile, the 1× MAT2A assay buffer was added to the blank control wells at 15 µL/well. • c) Preparation and addition of compounds: The test compound was diluted from a 10 mM stock solution to 100 µM with DMSO, and the positive control drug AGI-24512 was diluted under the same conditions. Using a Tecan compound dispenser (D300e), the dilutions were automatically dispensed into each well according to a preset concentration gradient. The dispensed volume was minimal and considered negligible. The concentration gradient started at 1 µM (1/2 log dilution), and a total of 8 gradient points were set. The plate was centrifuged at 2500 rpm for 30 s and incubated at 25 °C for 30 min. • d) Preparation of ATP: 10 mM ATP (Sigma, A7699) was diluted to 700 µM with the 1× MAT2A assay buffer for later use. • e) Preparation and addition of mixed solution of substrate and ATP: A mixed solution was prepared containing the 5× MAT2A assay buffer (3 µL/well), 750 µM L-methionine (Adamas, 01100469) (2.5 µL/well), 700 µM ATP (2.5 µL/well), and double distilled water (2 µL/well). The total amount of the required mixed solution was prepared according to the number of detection wells. Using a BioTek (MultiFlo FX) automated dispenser, the mixed solution was added at 10 µL/well. The resulting mixture was centrifuged at 2500 rpm for 30 s and allowed to react at 25 °C for 150 min. • f) Addition of Biomol Green detection reagent: Using a BioTek (MultiFlo FX) automated dispenser, Biomol Green (Enzo, BML-AK111) was added at 50 µL/well. The plate was centrifuged at 2500 rpm for 30 s and incubated at 25 °C for 20 min. • g) After the reaction was completed, the OD620 values were measured using a Perkin Elmer (Envision 2105) multimode microplate reader.
The inhibition rate was calculated using the following formula: Inhibition rate % = (ODmax −ODsample)/(ODmax −ODmin) × 100% [formula] where: • ODsample represents the OD620 value of the sample well; • ODmin represents the mean OD620 value of the blank control wells containing no enzyme and no test compound; • ODmax represents the mean OD620 value of the negative control wells containing enzyme but no compound. […]

HCT116 MTAP-/- cells = test: Cellular assay: cell proliferation inhibition (CellTiter-Glo); format: cell-based; conditions: Homo sapiens, HCT-116; incubated for 120 h
Description: HCT116 MTAP-/- cells (purchased from Horizon Discovery) (a human colorectal cancer cell strain with deletion of MTAP gene) were cultured in a medium containing RPMI 1640 + 10% FBS (fetal bovine serum). On day 0 of the experiment, the viable cell density of the aforementioned cells in the logarithmic growth phase was adjusted to 5000 cells/mL, and then the cells were seeded into a 96-well plate at 100 µL/well, with blank group wells set up in parallel. The seeded cell plate was placed in an incubator at 37 °C with 5% CO2 and incubated overnight.
On day 1 of the experiment, the cell plate incubated overnight was taken out, and the supernatant was discarded. A serum-free RPMI 1640 medium was then added at 80 µL/well, and the plate was placed in an incubator for starvation culture for 4 h. The test compound was dissolved in DMSO (dimethyl sulfoxide) to prepare a 10 mM compound stock solution. After the starvation was completed, the cell plate was taken out, and a medium containing RPMI 1640 + 20% FBS was further added at 80 µL/well. The cell plate was placed on an automated dispenser D300e (Tecan), with the program for compound addition set as follows: the highest concentration of the compound tested was 30 µM, and 3-fold gradient dilution was performed with DMSO to give a total of 10 concentrations; two replicate wells were set for each concentration; the final concentration of DMSO in each well of the 96-well plate was 0.3% (v/v). The pre-prepared 10 mM test compound stock solution was taken and then added by running the aforementioned drug addition program. After the drug addition was completed, the cell plate was placed in an incubator and incubated for 120 h.
On day 6 of the experiment, the cell plate was taken out, and CellTiter-Glo® (purchased from Promega) was added at 50 µL/well. The […] was measured on Envision (PerkinElmer) according to the operation procedures in the instructions. […]

[1] = In vivo pharmacokinetic study in ICR mice; conditions: mouse, PO @ 10 mg/kg, male ICR mice, plasma; for AUC(0-t): read-out: Area under the curve AUC0-t; for Cmax: read-out: Peak concentration Cmax
Description: Male ICR mice (6-10 weeks old, Vital River Laboratory Animal Technology Co., Ltd.) were housed in an SPF animal room at a temperature of 20-25 °C, with a relative humidity of 40%-70%, and under a 12/12-hour light/dark cycle. The animals were given free access to water and food. After at least 5 days of normal feeding, mice with good physical signs as determined by a veterinarian could be included in this experiment. Each mouse was marked with a number on the tail.
The day before the experiment, the mice were fasted overnight, with free access to water. They were fed 4 h after administration. The compound was prepared into a 20 mg/mL stock solution with DMSO. An appropriate volume of the 20 mg/mL stock solution was accurately pipetted into a glass flask, and then an appropriate volume of PEG400 was added. The mixture was mixed well, and then propylene glycol (PG) was added. The ratio of vehicles in the final formulation was DMSO:PEG400:PG (v/v/v) = 5:65:30. This process yielded a test dosing solution of each test compound at a concentration of 1 mg/mL.
The mice were weighed, and then the theoretical administration volume for each mouse was calculated according to the following formula. The actual administered dose for each mouse and the time of blood sample collection should be recorded in detail in the corresponding table. Theoretical administration volume(mL); = ((Dose(mg⋅kg^−1))/(Concentration of test solution(mg⋅mL^−1))) × Animal body weight(kg) [formula]
On the day of the experiment, the test dosing solution of each test compound was intragastrically administered to the mice in each group at a dose of 10 mg/kg. At each time point after administration, about 40 µL of blood was collected from the orbit of each mouse and then placed into an EDTA-K2 anticoagulation tube. The whole blood samples were centrifuged at 1500-1600 g for 10 min. The separated plasma was stored in a freezer at -40 °C to -20 °C for biological sample analysis.
The concentrations of the compounds in the biological samples obtained from the experiment were determined using an LC-MS/MS analysis method. Pharmacokinetic parameters were calculated using a non-compartmental model in Pharsight Phoenix 7.0.

[2] = Solid state stability of crystal forms (XRD and HPLC); format: physicochemical
Description: Samples of the crystal forms B, H, and L were placed under the conditions of 25 °C/60% RH and 40 °C/75% RH for 17 days, and then the physicochemical stability of the samples was tested using XRD and HPLC. Table 24: Summary of solid state stability evaluation of crystal forms

[3] = Suspension stirring competition among anhydrous crystal forms (XRD); format: physicochemical; conditions: different solvents and temperatures (room temperature/50 °C)
Description: The interconversion relationships among the various anhydrous crystal forms were investigated using a suspension stirring competition method in different solvent systems at different temperatures. 1) Equal masses (3-4 mg) of the various anhydrous crystal forms (crystal forms A/B/C/G/H/L/M) were separately weighed and added to HPLC vials. To each vial, 1.0 mL of the corresponding solvent that had been pre-saturated with the crystal form G at the corresponding temperature was added. The resulting suspensions were magnetically stirred (1000 rpm) at room temperature or 50 °C. Samples were taken at 10 min, 3 d, and 7 d, and then centrifuged to collect the solids, which were then subjected to XRD analysis. Table 25: Summary of results of suspension stirring competition test among various anhydrous crystal forms
2) Equal masses (about 5 mg) of the various anhydrous crystal forms (crystal forms B/H/L) were separately weighed and added to HPLC vials. To each vial, 1.0 mL of a solvent that had been pre-saturated with the crystal form G at the corresponding temperature was added. The resulting suspensions were magnetically stirred (1000 rpm) at room temperature or 50 °C. Samples were taken at 10 min, 6 h, 1 d, 4 d, and 7 d, and then centrifuged to collect the solids, which were then subjected to XRD analysis. […]

[4] = Heating experiment via DSC followed by XRD; format: physicochemical; conditions: Heating temperature 250 °C
Excerpt: The heated samples were then collected and subjected to XRD analysis. Table 27: Summary of heating test results for various crystal forms

[5] = Long-term stability study (XRD and HPLC); format: physicochemical; conditions: 40±2 °C/75%±5% RH
Description: A sample of the crystal form L was placed under the conditions of 40±2 °C/75%±5% RH, and the physicochemical stability of the sample was tested using XRD and HPLC.

T1 sequence (P31153 whole entry): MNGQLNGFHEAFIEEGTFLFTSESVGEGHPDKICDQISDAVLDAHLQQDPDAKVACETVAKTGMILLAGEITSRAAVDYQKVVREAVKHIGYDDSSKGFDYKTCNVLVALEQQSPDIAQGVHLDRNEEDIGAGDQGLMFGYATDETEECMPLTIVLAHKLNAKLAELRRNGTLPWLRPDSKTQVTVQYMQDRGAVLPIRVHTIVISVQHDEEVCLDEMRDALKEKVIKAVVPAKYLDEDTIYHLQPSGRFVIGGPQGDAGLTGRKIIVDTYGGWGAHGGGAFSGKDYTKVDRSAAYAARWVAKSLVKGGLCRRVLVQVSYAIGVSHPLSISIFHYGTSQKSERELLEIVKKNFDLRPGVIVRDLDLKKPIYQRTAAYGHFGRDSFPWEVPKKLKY

`Cn1cc2cc(-c3nn4ccc(C5CC5)nc4c(-c4ccc(OC(F)F)cc4)c3=O)ccc2n1` [Example 3, 2-Cyclopropyl-9-[4-(difluoromethoxy)phenyl]-7-(2-methyl-2H-indazol-5-yl)-8H-pyrimido[1,2-b]pyridazin-8-one] showed a pIC50 (MAT2A enzyme) of 7.97, a pIC50 (HCT116 MTAP-/- cells) of 7.84 and an AUC(0-t) [1] of 78300 ng·h/mL. It also gave a Cmax [1] of 4210 ng/mL.
Work on `O=c1c(-c2ccc3c(c2)OCO3)nn2ccc(C3CC3)nc2c1-c1ccc2c(c1)OCO2` [Example 2, 7,9-Bis(benzo[d][1,3]dioxol-5-yl)-2-cyclopropyl-8H-pyrimido[1,2-b]pyridazin-8-one] yielded a pIC50 (MAT2A enzyme) of 7.94, a pIC50 (HCT116 MTAP-/- cells) of 6.93 and an AUC(0-t) [1] of 8730 ng·h/mL. It also gave a Cmax [1] of 1370 ng/mL.
Work on `O=c1c(-c2ccc(OC(F)F)cc2)nn2ccc(C3CC3)nc2c1-c1ccc(OC(F)F)cc1` [Example 1, 2-Cyclopropyl-7,9-bis[4-(difluoromethoxy)phenyl]-8H-pyrimido[1,2-b]pyridazin-8-one] yielded a pIC50 (MAT2A enzyme) of 8.19, a pIC50 (HCT116 MTAP-/- cells) of 6.59 and an AUC(0-t) [1] of 45500 ng·h/mL. The Cmax [1] was 2070 ng/mL.
In the case of `Cn1cc2cc(-c3nn4ccc(C5CC5)nc4c(-c4ccc(OC(F)F)cc4)c3=O)ccc2n1` [Crystal form L, 2-cyclopropyl-9-[4-(difluoromethoxy)phenyl]-7-(2-methyl-2H-indazol-5-yl)-8H-pyrimido[1,2-b]pyridazin-8-one], the Crystal form change ([2]; 0 day) was “No”, the Purity ([2]; 0 day) was 98.60% and the “change in crystal form or purity” value ([2]; 25 °C/60% RH for 17 days) was “no change in either crystal form or purity”. For the same compound, the Crystal form change ([2]; 25 °C/60% RH/17 days) was “No”, the Purity ([2]; 25 °C/60% RH/17 days) was 99.04% and the “change in crystal form or purity” value ([2]; 40 °C/75% RH for 17 days) was “no change in either crystal form or purity”. The Crystal form change ([2]; 40 °C/75% RH/17 days) was “No”, the Purity ([2]; 40 °C/75% RH/17 days) was 99.00% and the “stability in suspension stirring competition” value [3] was “stable crystal form”. For the same compound, the “After heating (crystal form)” value [4] was “Crystal form A”, the Crystal form change ([5]; 0 days) was “No” and the Water content ([5]; 0 days) was “Undetectable”. For the same compound, the Crystal form change ([5]; 1 month) was “No”, the “Related substance Total impurities” value ([5]; 1 month) was 0.22% and the Water content ([5]; 1 month) was “Undetectable”. For the same compound, the Crystal form change ([5]; 2 months) was “No”, the “Related substance Total impurities” value ([5]; 2 months) was 0.26% and the Crystal form change ([5]; 3 months) was “No”. The “Related substance Total impurities” value ([5]; 3 months) was 0.26%, the Crystal form change ([5]; 6 months) was “No” and the “Related substance Total impurities” value ([5]; 6 months) was 0.27%. For the same compound, the Water content ([5]; 6 months) was “Undetectable”.
